What was measured:
[1] = molecular target: rabbit IgG (IgGR); assay: Binding kinetics to biotinylated IgG immobilized on optical biosensors (rabbit IgG)
Description: (§1) Biotinylated IgG was immobilized onto optical biosensors to enable high throughput kinetic analyses in microplate format. The IgG-binding behavior to the Hex nanocarrier in comparison to soluble SPAB at neutral and acidic pH was assessed.

[2] = test system: mouse IgG (IgGM); assay: Binding kinetics to biotinylated IgG immobilized on optical biosensors (mouse IgG)
Description: as §1

Q: How did the Kd ([1]; pH 5.0) turn out when “domain B of staphylococcal protein A [SPAB]” was run?
A: 0.255 ± 0.017 µM

Q: What about the Kd ([1]; pH 7.4) of the same substance?
A: 0.053 ± 0.002 µM

Q: And the “stronger binding at neutral pH compared to pH 5.0” value [2]?
A: 17 fold

Q: And the “affinities towards mouse IgG (in words)” value ([2]; neutral pH and pH 5.0)?
A: nanomolar

Q: And the Kd ([2]; pH 5.0)?
A: 0.47 ± 0.019 µM

Q: What about the Kd ([2]; pH 7.4) of the same substance?
A: 0.0283 ± 0.0028 µM
